Experimental data: patent US20250170133A1, “PHARMACEUTICAL COMBINATIONS AND METHODS OF USE OF AMINO-PYRROLOPYRIMIDINONE COMPOUND” (Merck Sharp & Dohme LLC, priority 2022, published 2025)

Tests used:
[1] = test system: BTK's downstream targets; details: cited from earlier work
[2] = test system: Primary CLL cells; assay: Primary CLL cell viability by flow cytometry following Annexin V/PI staining; type: cell-based, human; details: BTKi 1 μM added to venetoclax 5 nM; ibrutinib washed out after 1 hr; total incubation 24 hr
Description: Cell viability was assessed by flow cytometry following Annexin V/PI staining. Data are normalized to DMSO control. A linear mixed effect model was used to analyze raw data and p values were adjusted for multiple comparisons using Tukey's method (*, p<0.05, **, pS0.01, ***, pS0.001).

[3] = test system: BTK^Y223 autophosphorylation; assay: Immunoblot of anti-IgM stimulated primary CLL cells: pBTK; type: cell-based, human; details: ibrutinib (1 μM), 24 hr, anti-IgM 15 min, normalized to GAPDH
[4] = test system: ERK phosphorylation; assay: Immunoblot of anti-IgM stimulated primary CLL cells: pERK; type: cell-based, human; details: nemtabrutinib vs ibrutinib (1 μM), 24 hr, anti-IgM 15 min, normalized to GAPDH
Description: The effects of combining venetoclax and BTKi's on BCR signaling can be seen in FIG. 1B. […] Cells were stimulated with 10 μg plate-bound anti-IgM for 15 min before collection of whole cell lysate and analysis using SDS-PAGE.
For FIG. 1C to IE, all immunoblots of primary CLL patient samples were quantified using densitometry software (AlphaView). Protein levels (FIG. 1C: pBTK, FIG. 1D: pERK, FIG. 1E: MCL-1) normalized to GAPDH loading control are reported as fold change over vehicle control. A linear mixed effect model was used to analyze raw data normalized to GAPDH loading control and p values were adjusted for multiple comparisons using Tukey's method (*, p<0.05, ** p<0.01, ***, p<0.001).

[5] = test system: BCL-2 and BCL-xL; assay: BH3 profiling of primary CLL cells from nemtabrutinib treated patients (cytochrome c release); type: cell-based, human; details: samples from 3 nemtabrutinib treated patients, co-cultured with NK Tert stromal cells
From the text: For FIG. 1F, primary CLL cells from nemtabrutinib treated patients were co-cultured with NK Tert stromal cells before performing BH3 profiling using BIM, BAD, MS-1, Y4ek, and PUMA2A peptides. Baseline cytochrome c release measured in DMSO treated cells has been subtracted from all test conditions and controls presented. Cytochrome c release in response to interaction with BIM, BAD, and Y4ek peptides indicates cellular dependency on BCL-2 and BCL-xL. A linear mixed effect model was used to analyze raw data and p values were adjusted for multiple comparisons using Tukey's method. All statistics represented are in comparison to DMSO treated control (*, p<0.05, **, p<0.01, ***, p<0.001).

[6] = test system: Eμ-TCL1 adoptive transfer CLL mouse model; assay: Eμ-TCL1 adoptive transfer CLL mouse model, survival; type: in vivo, C57BL/6NTac mice; details: daily oral gavage; venetoclax 100 mg/kg, nemtabrutinib 75 mg/kg, ibrutinib 25 mg/kg; 48 mice with BCR-dependent disease
From the text: (Bichi R, et al. Proc Natl Acad Sci USA. 2002; 99(10):6955-60). For FIG. 2A, splenocytes from a Eμ-TCL1 donor mouse were engrafted into 93 C57BL/6NTac mice via tail vein injection. Recipient mice were randomly enrolled into treatment groups after developing CD5+CD19+ disease as assessed by flow cytometry of peripheral blood. […] Due to the large study size, splenocytes from multiple E-TCL1 donors were needed to engraft C57BL/6NTac mice. Splenocytes from 4 donors were engrafted into groups of 48, 25, 17, and 3 recipient mice, respectively.
Peripheral blood disease progression was monitored weekly via flow cytometry and was reported as % CD5+CD19+ of CD45+ cells. (FIG. 2B). […] The survival differences of 48 mice engrafted with splenocytes from a single donor with BCR-dependent disease were assessed.

Structure (SMILES)	inhibition of BTK's downstream targets compared to ibrutinib [1]	increase in cytotoxicity compared to venetoclax alone [2] [%]	autophosphorylation of BTK^Y223 vs stimulated vehicle [3]	ERK phosphorylation [4]	cytochrome c release in response to BIM, BAD and Y4ek peptides [5]	median survival [6] [days]
O=C(c1ccc(Oc2ccccc2)cc1Cl)c1c[nH]c2ncnc(N[C@@H]3CC[C@@H](CO)OC3)c12 [nemtabrutinib]	greater inhibition	10	significantly inhibited	inhibited to a more significant degree	maintain dependence on BCL2 and BCL-xL	81.5
CC1(C)CCC(CN2CCN(c3ccc(C(=O)NS(=O)(=O)c4ccc(NCC5CCOCC5)c([N+](=O)[O-])c4)c(Oc4cnc5[nH]ccc5c4)c3)CC2)=C(c2ccc(Cl)cc2)C1 [venetoclax, reference compound]	–	–	–	–	–	34.5
